# Laboratory results reported in patent US10214519B2, “Phosphatidylinositol 3-kinase inhibitors” (Gilead Sciences, Inc., priority 2016, dated 2019).
# Target: PI3Kβ (Homo sapiens (Human), UniProt P42338)
# Experiment: PI3K isoform TR-FRET enzymatic assay (PI3Kβ)
# Assay type: biochemical
# Conditions: 2× Km ATP, 30 minutes at 25° C.
# Outline: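 Heterodimeric recombinant PI3Kβ was incubated with compound 30 minutes at 25° C. Product was detected by TR-FRET competition with 10 nM labeled PIP3 for 35 nM Eu-GRP-1 PH domain after EDTA stop. Data were normalized to 1 μM wortmannin and DMSO, and IC50 was taken from a four-parameter fit.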
# Chain of PI3Kβ (P42338 whole entry, canonical isoform): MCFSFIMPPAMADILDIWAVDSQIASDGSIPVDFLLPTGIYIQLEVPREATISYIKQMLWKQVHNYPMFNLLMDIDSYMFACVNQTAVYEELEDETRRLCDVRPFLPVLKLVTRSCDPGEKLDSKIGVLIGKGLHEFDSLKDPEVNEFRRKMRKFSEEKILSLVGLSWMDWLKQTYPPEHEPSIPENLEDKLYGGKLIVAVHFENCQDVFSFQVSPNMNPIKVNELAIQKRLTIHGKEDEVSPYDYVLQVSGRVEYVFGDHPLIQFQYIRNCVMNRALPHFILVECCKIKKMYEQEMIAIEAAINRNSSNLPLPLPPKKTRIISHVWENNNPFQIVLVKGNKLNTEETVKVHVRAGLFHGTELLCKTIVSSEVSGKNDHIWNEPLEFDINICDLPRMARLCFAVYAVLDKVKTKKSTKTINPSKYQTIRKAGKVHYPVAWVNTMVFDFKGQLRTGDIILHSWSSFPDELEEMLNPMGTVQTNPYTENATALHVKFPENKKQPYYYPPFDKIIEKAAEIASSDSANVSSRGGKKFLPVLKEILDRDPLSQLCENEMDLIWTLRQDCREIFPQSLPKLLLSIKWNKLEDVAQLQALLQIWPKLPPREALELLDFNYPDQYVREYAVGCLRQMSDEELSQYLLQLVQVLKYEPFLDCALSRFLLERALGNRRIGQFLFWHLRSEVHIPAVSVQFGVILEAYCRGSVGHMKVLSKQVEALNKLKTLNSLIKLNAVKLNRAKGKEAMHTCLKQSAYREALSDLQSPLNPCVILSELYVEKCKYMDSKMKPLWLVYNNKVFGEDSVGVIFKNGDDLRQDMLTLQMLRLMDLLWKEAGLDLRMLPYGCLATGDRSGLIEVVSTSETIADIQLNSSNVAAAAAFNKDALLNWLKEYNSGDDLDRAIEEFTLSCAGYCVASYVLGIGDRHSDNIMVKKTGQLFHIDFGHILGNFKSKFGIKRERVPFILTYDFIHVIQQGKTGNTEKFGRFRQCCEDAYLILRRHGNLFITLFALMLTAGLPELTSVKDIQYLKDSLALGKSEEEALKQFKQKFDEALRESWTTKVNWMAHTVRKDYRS
# Chain of PI3Kβ (P27986 whole entry partner, canonical isoform): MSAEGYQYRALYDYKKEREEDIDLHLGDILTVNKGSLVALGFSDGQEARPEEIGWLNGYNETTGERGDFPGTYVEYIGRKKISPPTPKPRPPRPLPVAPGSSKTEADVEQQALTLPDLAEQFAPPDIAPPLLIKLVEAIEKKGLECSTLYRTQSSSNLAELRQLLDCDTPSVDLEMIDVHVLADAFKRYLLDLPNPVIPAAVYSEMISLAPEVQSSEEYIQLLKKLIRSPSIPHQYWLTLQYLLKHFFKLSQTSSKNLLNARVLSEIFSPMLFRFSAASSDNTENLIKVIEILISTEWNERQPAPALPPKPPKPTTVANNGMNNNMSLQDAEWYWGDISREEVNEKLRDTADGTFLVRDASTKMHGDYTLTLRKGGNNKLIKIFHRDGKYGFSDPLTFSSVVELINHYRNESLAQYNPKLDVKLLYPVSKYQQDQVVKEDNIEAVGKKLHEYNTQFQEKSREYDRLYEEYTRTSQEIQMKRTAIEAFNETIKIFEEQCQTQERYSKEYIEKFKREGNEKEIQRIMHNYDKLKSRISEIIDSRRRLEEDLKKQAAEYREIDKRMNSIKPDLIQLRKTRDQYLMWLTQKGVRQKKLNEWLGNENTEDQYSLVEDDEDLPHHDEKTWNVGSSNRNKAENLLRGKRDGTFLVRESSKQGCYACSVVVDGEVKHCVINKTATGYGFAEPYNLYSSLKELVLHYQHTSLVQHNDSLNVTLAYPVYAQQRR
row,SMILES,IC50
1,"Cc1nc2c(-c3nnc[nH]3)cc(N3CCOC[C@H]3C)cc2n1-c1ccnc2c(Cl)cccc12 [Example 100, (3R)-4-[3-(8-chloroquinolin-4-yl)-2-methyl-7-(4H-1,2,4-triazol-3-yl)benzimidazol-5-yl]-3-methylmorpholine]",43 nM
2,"CCCc1nc2c(-c3nc(C)cs3)cc(N3CCOCC3)cc2n1-c1ccnc2c(F)ccc(F)c12 [Example 235, 4-[3-(5,8-difluoroquinolin-4-yl)-7-(4-methyl-1,3-thiazol-2-yl)-2-propylbenzimidazol-5-yl]morpholine]",17 nM
3,"CCc1nc2c(-c3cnc(Cl)[nH]3)cc(N3CCOCC3)cc2n1-c1cc(C)nc2c(F)cccc12 [Example 283, 4-[7-(2-chloro-1H-imidazol-5-yl)-2-ethyl-3-(8-fluoro-2-methylquinolin-4-yl)benzimidazol-5-yl]morpholine]",71 nM
4,"Cc1nnc(-c2cc(N3CCOCC3)cc3c2ncn3-c2ccnc3c(Cl)c(F)ccc23)[nH]1 [Example 40, 4-(1-(8-chloro-7-fluoroquinolin-4-yl)-4-(5-methyl-4H-1,2,4-triazol-3-yl)-1H-benzo[d]imidazol-6-yl)morpholine]",22 nM
5,"Cc1nc2c(-c3nnc[nH]3)cc(N3CCOCC3)cc2n1-c1ccnc2cc(F)ccc12 [Example 90, 4-[3-(7-fluoroquinolin-4-yl)-2-methyl-7-(4H-1,2,4-triazol-3-yl)benzimidazol-5-yl]morpholine]",11 nM
6,"Cc1nc2c(-c3cccc(N(C)C)c3)cc(N3CCOCC3)cc2n1-c1ccnc2c(Cl)cccc12 [Example 316, 3-(1-(8-chloroquinolin-4-yl)-2-methyl-6-morpholino-1H-benzo[d]imidazol-4-yl)-N,N-dimethylaniline]",2500 nM
7,"Cc1nnc(-c2cc(N3CCOCC3)cc3c2nc(C(C)C)n3-c2ccnc3c(Cl)cccc23)[nH]1 [Example 14, 4-(1-(8-chloroquinolin-4-yl)-2-isopropyl-4-(5-methyl-4H-1,2,4-triazol-3-yl)-1H-benzo[d]imidazol-6-yl)morpholine]",49 nM
8,"Fc1ccc(Cl)c2nccc(-n3c(C4CC4)nc4c(-c5nccs5)cc(N5CCOCC5)cc43)c12 [Example 247, 4-(1-(8-chloro-5-fluoroquinolin-4-yl)-2-cyclopropyl-4-(thiazol-2-yl)-1H-benzo[d]imidazol-6-yl)morpholine]",12 nM
9,"CCc1nc2c(-c3ncc[nH]3)cc(N3CCOCC3)cc2n1-c1ccnc2c(F)ccc(F)c12 (atropisomer, axis not shown) [Compound 371, 4-(1-(5,8-difluoroquinolin-4-yl)-2-ethyl-4-(1H-imidazol-2-yl)-1H-benzo[d]imidazol-6-yl)morpholine]",6800 nM
10,"Clc1cccc2c(-n3cnc4c(-c5c[nH]cn5)cc(N5CCOCC5)cc43)ccnc12 [Example 332, 4-(1-(8-chloroquinolin-4-yl)-4-(1H-imidazol-4-yl)-1H-benzo[d]imidazol-6-yl)morpholine]",2 nM
11,"Cc1nnc(-c2cc(N3CCOCC3)cc3c2nc(C)n3-c2ccnc3c(Cl)cccc23)[nH]1 [Example 129, 4-[3-(8-chloroquinolin-4-yl)-2-methyl-7-(5-methyl-4H-1,2,4-triazol-3-yl)benzimidazol-5-yl]morpholine]",23 nM
12,"Cc1nc2c(-c3cccc(C(N)=O)c3)cc(N3CCOCC3)cc2n1-c1ccnc2c(-c3cccc(C(N)=O)c3)cccc12 [Example 322, 3-[4-[4-(3-carbamoylphenyl)-2-methyl-6-morpholin-4-ylbenzimidazol-1-yl]quinolin-8-yl]benzamide]",> 10000 nM
13,"Fc1c(N2CCOCC2)cc(-c2nnc[nH]2)c2ncn(-c3ccnc4c(Cl)cccc34)c12 [Example 149, 4-(1-(8-chloroquinolin-4-yl)-7-fluoro-4-(4H-1,2,4-triazol-3-yl)-1H-benzo[d]imidazol-6-yl)morpholine]",100 nM
14,"Cc1csc(-c2cc(N3CCOCC3)cc3c2nc(C)n3-c2ccnc3c(Cl)cccc23)n1 [Example 205, 4-[3-(8-chloroquinolin-4-yl)-2-methyl-7-(4-methyl-1,3-thiazol-2-yl)benzimidazol-5-yl]morpholine]",12 nM
15,"CCCc1nc2c(-c3cnc[nH]3)cc(N3CCOCC3)cc2n1-c1ccnc2c(Cl)cccc12 [Example 207, 4-[3-(8-chloroquinolin-4-yl)-7-(1H-imidazol-5-yl)-2-propylbenzimidazol-5-yl]morpholine]",13 nM
16,"Cc1nc2c(-c3cnc(Cl)[nH]3)cc(N3CCOCC3)cc2n1-c1ccnc2c(Cl)cc(F)cc12 [Example 289, 4-[3-(8-chloro-6-fluoroquinolin-4-yl)-7-(2-chloro-1H-imidazol-5-yl)-2-methylbenzimidazol-5-yl]morpholine]",24 nM
17,"Cc1nc2c(-c3ccco3)cc(N3CCOCC3)cc2n1-c1ccnc2c(Cl)cccc12 [Example 274, 4-[3-(8-chloroquinolin-4-yl)-7-(furan-2-yl)-2-methylbenzimidazol-5-yl]morpholine]",27 nM

row,SMILES,IC50
1,"CCc1nc2c(-c3nnc(C)[nH]3)cc(N3CCOCC3)cc2n1-c1c(Cl)cnc2c(Cl)cccc12 [Example 26, 4-[3-(3,8-dichloroquinolin-4-yl)-2-ethyl-7-(5-methyl-4H-1,2,4-triazol-3-yl)benzimidazol-5-yl]morpholine]",22 nM
2,"CCCc1nc2c(-c3ncco3)cc(N3CCOCC3)cc2n1-c1ccnc2c(Cl)cccc12 [Example 227, 4-[3-(8-chloroquinolin-4-yl)-7-(1,3-oxazol-2-yl)-2-propylbenzimidazol-5-yl]morpholine]",10 nM
3,"CCc1nc2c(-c3nnc[nH]3)cc(N3CCOCC3)cc2n1-c1c(C)cnc2c(C#N)cccc12 (atropisomer, axis not shown) [Compound 365, 4-(2-ethyl-6-morpholino-4-(4H-1,2,4-triazol-3-yl)-1H-benzo[d]imidazol-1-yl)-3-methylquinoline-8-carbonitrile]",9100 nM
4,"CCc1nc2c(-c3ncco3)cc(N3CCOCC3)cc2n1-c1ccnc2c(F)cccc12 [Example 213, 4-[2-ethyl-3-(8-fluoroquinolin-4-yl)-7-(1,3-oxazol-2-yl)benzimidazol-5-yl]morpholine]",16 nM
5,"Cc1nc2c(-c3nnc[nH]3)cc(N3CCOCC3)cc2n1-c1ccnc2c(F)ccc(Cl)c12 (atropisomer, axis not shown) [Compound 345, 4-[3-(5-chloro-8-fluoroquinolin-4-yl)-2-methyl-7-(4H-1,2,4-triazol-3-yl)benzimidazol-5-yl]morpholine]",4460 nM
6,"CC1(c2nc3c(-c4nnc[nH]4)cc(N4CCOCC4)cc3n2-c2ccnc3c(Cl)cccc23)CC1 [Example 4, 4-(1-(8-chloroquinolin-4-yl)-2-(1-methylcyclopropyl)-4-(4H-1,2,4-triazol-3-yl)-1H-benzo[d]imidazol-6-yl)morpholine]",28 nM
7,"Cc1nc2c(-c3cnn(C)c3)cc(N3CCOCC3)cc2n1-c1ccnc2c(Cl)cccc12 [Example 313, 4-(1-(8-chloroquinolin-4-yl)-2-methyl-4-(1-methyl-1H-pyrazol-4-yl)-1H-benzo[d]imidazol-6-yl)morpholine]",9800 nM
8,"Cc1nc2c(-c3cncn3C)cc(N3CCOCC3)cc2n1-c1ccnc2c(Cl)cccc12 [Example 202, 4-[3-(8-chloroquinolin-4-yl)-2-methyl-7-(3-methylimidazol-4-yl)benzimidazol-5-yl]morpholine]",> 10000 nM
9,"Cc1cc(-c2cc(N3CCOCC3)cc3c2nc(C)n3-c2ccnc3c(Cl)cccc23)n[nH]1 [Example 268, 4-[3-(8-chloroquinolin-4-yl)-2-methyl-7-(5-methyl-1H-pyrazol-3-yl)benzimidazol-5-yl]morpholine]",317 nM
10,"CCCc1nc2c(-c3ncco3)cc(N3CCOCC3)cc2n1-c1ccnc2c(F)ccc(F)c12 (atropisomer, axis not shown) [Compound 357, 4-[3-(5,8-difluoroquinolin-4-yl)-7(1,3-oxazol-2-yl)-2-propylbenzimidazol-5-yl]morpholine]",5 nM
11,"Cc1ncc(-c2cc(N3CCOCC3)cc3c2nc(C)n3-c2ccnc3c(Cl)cccc23)[nH]1 [Example 201, 4-[3-(8-chloroquinolin-4-yl)-2-methyl-7-(2-methyl-1H-imidazol-5-yl)benzimidazol-5-yl]morpholine]",19 nM
12,"Cc1nc2c(-c3cnc(Cl)[nH]3)cc(N3CCOCC3)cc2n1-c1ccnc2c(F)ccc(F)c12 [Example 298, 4-[7-(2-chloro-1H-imidazol-5-yl)-3-(5,8-difluoroquinolin-4-yl)-2-methylbenzimidazol-5-yl]morpholin]",10 nM
13,"Cc1nc2c(-c3nnc[nH]3)cc(N3CCOCC3)cc2n1-c1c(-c2nnc[nH]2)cnc2ccccc12 [Example 392, 4-(1-(3-(4H-1,2,4-triazol-3-yl)quinolin-4-yl)-2-methyl-4-(4H-1,2,4-triazol-3-yl)-1H-benzo[d]imidazol-6-yl)morpholine]",9 nM
14,"Cc1nc2c(-c3nnc[nH]3)cc(N3CCOCC3)cc2n1-c1ccnc2c(F)c(F)ccc12 [Example 142, 4-[3-(7,8-difluoroquinolin-4-yl)-2-methyl-7-(4H-1,2,4-triazol-3-yl)benzimidazol-5-yl]morpholine]",15 nM
15,"Cc1nnc(-c2cc(N3CCOCC3)cc3c2nc(C)n3-c2c(Cl)cnc3c(Cl)cccc23)[nH]1 (atropisomer, axis not shown) [Compound 366, 4-(1-(3,8-dichloroquinolin-4-yl)-2-methyl-4-(5-methyl-4H-1,2,4-triazol-3-yl)-1H-benzo[d]imidazol-6-yl)morpholine]",17 nM
16,"c1ccc2c(-n3cnc4c(-c5nnc[nH]5)cc(N5CCOCC5)cc43)cc(N3CCNCC3)nc2c1 [Example 379, 4-(1-(2-(piperazin-1-yl)quinolin-4-yl)-4-(4H-1,2,4-triazol-3-yl)-1H-benzo[d]imidazol-6-yl)morpholine]",8 nM
17,"Fc1cccc2c(-n3c(C4CC4)nc4c(-c5nnc[nH]5)cc(N5CCOCC5)cc43)ccnc12 [Example 144, 4-[2-cyclopropyl-3-(8-fluoroquinolin-4-yl)-7-(4H-1,2,4-triazol-3-yl)benzimidazol-5-yl]morpholine]",65 nM
